Measurements: patent US20150181885A1, “METHOD FOR CONTROLLING FUNGAL DISEASES IN MUSHROOM PRODUCTION” (priority 2012, published 2015)

What was measured:
Verticillium fungicola = assay: In vitro antifungal activity assay in 96-well microtiter plates against Verticillium fungicola; assay type: cell-based; conditions: 3 days incubation at 25° C.
Method: The following compositions are tested: […] Subsequently, 100 μl of a Verticillium fungicola suspension prepared in PCB medium is used to inoculate each well with 5.0×10^3 spores/ml. […] After incubation of the microtiter plates for 3 days at 25° C., the in vitro antifungal activity (%) of the individual active ingredients was assessed by calculating the reduction in mould growth observed in the presence of the active ingredient in comparison to the mould growth observed in the absence of the active ingredient. The expected antifungal activity (E in %) of the active ingredient combination was calculated according to the Colby equation (Colby, 1967): […] wherein X and Y are the observed antifungal activities (in %) of the individual active ingredients X and Y, respectively.

Trichoderma harzianum = assay: In vitro antifungal activity assay in 96-well microtiter plates against Trichoderma harzianum; assay type: cell-based
Method: Subsequently, 100 μl of a Verticillium fungicola suspension prepared in PCB medium is used to inoculate each well with 5.0×10^3 spores/ml.
After incubation of the microtiter plates for 3 days at 25° C., the in vitro antifungal activity (%) of the individual active ingredients was assessed by calculating the reduction in mould growth observed in the presence of the active ingredient in comparison to the mould growth observed in the absence of the active ingredient. The expected antifungal activity (E in %) of the active ingredient combination was calculated according to the Colby equation (Colby, 1967): […]
wherein X and Y are the observed antifungal activities (in %) of the individual active ingredients X and Y, respectively. If the observed antifungal activity (O in %) of the combination exceeds the expected antifungal activity (E in %) of the combination and the resulting synergy factor O/E is thus >1.0, the combined application of the active ingredients leads to a synergistic antifungal effect.
The experiment was conducted as described in Example 1, except for the fact that the following compositions were tested: • Control (no active ingredient) • 1.25 ppm Natamycin • 5, 10 or 15 ppm thiophanate-methyl • 1.25 ppm Natamycin+5 ppm thiophanate-methyl • 1.25 ppm Natamycin+10 ppm thiophanate-methyl • 1.25 ppm Natamycin+15 ppm thiophanate-methyl
Furthermore, Trichoderma harzianum was used for inoculation. After 3 and 5 days of incubation at 25° C., the antifungal activity (in %) of the individual and combined active ingredients was determined according to the method described in Example 1.

SMILES	Observed antifungal activity O (%) (Verticillium fungicola; Natamycin 2.5 ppm)	Observed antifungal activity O (%) (Verticillium fungicola; Thiophanate-methyl 15 ppm)	Observed antifungal activity O (%) (Verticillium fungicola; Thiophanate-methyl 20 ppm)	Observed antifungal activity O (%) (Trichoderma harzianum; Thiophanate-methyl 5 ppm, 3 days incubation at 25° C.)	Observed antifungal activity O (%) (Trichoderma harzianum; Thiophanate-methyl 10 ppm, 5 days incubation at 25° C.)	Observed antifungal activity O (%) (Trichoderma harzianum; Thiophanate-methyl 15 ppm, 5 days incubation at 25° C.)
C[C@@H]1C/C=C/C=C/C=C/C=C/[C@H](O[C@@H]2O[C@H](C)[C@@H](O)[C@H](N)[C@@H]2O)C[C@@H]2O[C@](O)(C[C@@H](O)C[C@H]3O[C@@H]3/C=C/C(=O)O1)C[C@H](O)[C@H]2C(=O)O [Natamycin, natamycin]	0	–	–	–	–	–
COC(=O)NC(=S)Nc1ccccc1NC(=S)NC(=O)OC [Thiophanate-methyl, dimethyl 4,4′-(o-phenylene)bis(3-thioallophanate)]	–	50	50	0	0	0
